According to patent US20050080113A1, “Medicinal compositions” (priority 2001, published 2005):

| SMILES | melting point [°C] |
| --- | --- |
| CCC(=O)Nc1nc(-c2cc(C)cc(C)c2)c(-c2ccncc2)s1 [23-194, N-[4 (3,5 dimethylphenyl)-5 (4 pyridyl)-1,3 thiazol-2-yl]propionamide] | 291 to 293 |
| CSc1ccc(-c2nc(-c3cccc(C)c3)c(-c3ccnc(NC(=O)CCc4ccccc4)c3)s2)cc1 [D 16-16, N-[4-[4-(3-methylphenyl)-2-(4-methylthiophenyl)-1,3-thiazol-5-yl]-2-pyridyl]-3-phenylpropionamide] | 174 to 175 |
| Cc1cc(C)cc(-c2nc(NC(=O)c3cccnc3)sc2-c2ccncc2)c1 [23-199, N-[4 (3,5 dimethylphenyl)-5 (4 pyridyl)-1,3 thiazol-2-yl]nicotinamide] | 267 to 270 |
| Cc1cccc(-c2nc(-c3ccc(S(C)(=O)=O)cc3)sc2-c2ccnc(F)c2)c1 [H 58-4, 5-(2-fluoro-4-pyridyl)-4-(3-methylphenyl)-2-(4-methylsulfonylphenyl)-1,3-thiazole] | 195 to 199 |
| CC(C)(C)c1ccc(-c2nc(NC(=O)c3ccccc3)sc2-c2ccncc2)cc1 [23-164, N-[4 [4 (1,1 dimethylethyl)phenyl]-5 (4 pyridyl)-1,3 thiazol-2 yl]benzamide] | 292 to 294 |
| CCc1nc(-c2ccc(Cl)cc2)c(-c2ccnc(N)c2)s1 [H 20-7, 4 [4 (4 chlorophenyl)-2-ethyl-1,3 thiazol-5 yl]-2 pyridylamine] | 136 to 137 |
| CSc1ccc(-c2nc(-c3cccc(C)c3)c(-c3ccnc(NCc4ccc5ccccc5c4)c3)s2)cc1 [D 19-20, N-[4 [4 (3 methylphenyl)-2 (4 methylthiophenyl)-1,3 thiazol-5 yl]-2 pyridyl]-N-(2-naphthylmethyl)amine] | 144 to 145 |
| Cc1cccc(-c2nc(-c3ccc(S(C)(=O)=O)cc3)sc2-c2ccnc(NCc3ccc4ccccc4c3)c2)c1 [D 21-7, N-[4 [4 (3 methylphenyl)-2-(4 methylsulfonylphenyl)-1,3 thiazol-5 yl]-2 pyridyl]-N-(2-naphthylmethyl)amine] | 167 to 168 |
| Cc1cccc(-c2nc(NC(=O)OCCCl)sc2-c2ccnc(C)c2)c1 [H 62, 2 chloroethyl [4 (3-methylphenyl)-5 (2 methyl-4 pyridyl)-1,3 thiazol-2-yl]carbamate] | 156 to 158 |
| CC(C)(C)c1ccc(-c2nc(NC(=O)c3cccnc3)sc2-c2ccncc2)cc1 [23-165, N-[4 [4 (1,1 dimethylethyl)phenyl]-5 (4 pyridyl)-1,3 thiazol-2 yl]nicotinamide] | 326 to 328 |
| CC(C)(C)c1ccc(-c2nc(N)sc2-c2ccncc2)cc1 [23-143, [4 [4 (1,1 dimethylethyl)phenyl]-5 (4 pyridyl)-1,3 thiazol-2-yl]amine] | 254 to 257 |
| Cc1cccc(-c2nc(N)sc2-c2ccnc(NC3CCCC3)c2)c1 [H 34-3, [5 (2 cyclopentylamino-4-pyridyl)-4 (3 methylphenyl)-1,3 thiazol-2 yl]amine] | 169 to 170 |
| CSc1ccc(-c2nc(-c3cccc(C)c3)c(-c3ccnc(NC(=O)c4cccs4)c3)s2)cc1 [D 16-17, N-[4 [4 (3 methylphenyl)-2 (4 methylthiophenyl)-1,3 thiazol-5 yl]-2 pyridyl]-2-thiophenecarboxamide] | 145 to 147 |
| Cc1cccc(-c2nc(N3CCNC3=O)sc2-c2ccnc(C)c2)c1 [H 66, 1 [4 (3 methylphenyl)-5 (2-methyl-4 pyridyl)-1,3 thiazol-2 yl]imidazolidin-2 one] | 200 to 201 |
| Cc1nc(-c2cccc(Cl)c2)c(-c2ccnc(N)c2)s1 [H 27-2, 4 [4 (3 chlorophenyl)-2-methyl-1,3 thiazol-5 yl]-2 pyridylamine] | 142 to 143 |
| COc1ccc(-c2nc(N)sc2-c2ccncc2)cc1 [13-14, [4-(4-methoxyphenyl)-5-(4-pyridyl)-1,3-thiazol-2-yl]amine] | 282 to 284 |
| CCCc1cccc(-c2nc(CC)sc2-c2ccnc(N)c2)c1 [H 20-11, 4 [2 ethyl-4 (3-propylphenyl)-1,3 thiazol-5 yl]-2 pyridylamine] | 72 to 74 |
| Cc1cccc(-c2nc(N(C)C(=O)c3cccnc3)sc2-c2ccnc(NC3CCCC3)c2)c1 [H 42-9, N-[5 (2 cyclopentylamino-4 pyridyl)-4 (3 methylphenyl)-1,3 thiazol-2 yl]N-methylnicotinamide] | 148 to 149 |
| CC(=O)Nc1nc(-c2cccc(C)c2)c(-c2ccnc(C)c2)s1 [H 39, N-[4-(3-methylphenyl)-5-(2-methyl-4-pyridyl)-1,3-thiazol-2-yl]acetamide] | 230 to 231 |
| CCc1nc(-c2cccc(F)c2)c(-c2ccnc(N)c2)s1 [H 20-6, 4 [2 ethyl-4 (3-fluorophenyl)-1,3 thiazol-5 yl]-2 pyridylamine] | 153 to 154 |
| CCc1nc(-c2cccs2)c(-c2ccnc(NC(C)=O)c2)s1 [H 30-4, N-[4 [2 ethyl-4 (2-thienyl)-1,3 thiazol-5 yl]-2 pyridyl]acetamide] | 154 to 155 |

Second part, the compound after the results:

| melting point [°C] | SMILES |
| --- | --- |
| 302 to 304 | Cc1cc(C)cc(-c2nc(NC(=O)c3ccncc3)sc2-c2ccncc2)c1 [Reference Example A 23-200, N-[4-(3,5-dimethylphenyl)-5-(4-pyridyl)-1,3-thiazol-2-yl]isonicotinamide] |
| 173 to 174 | CCc1nc(-c2cccc(C(=O)OC)c2)c(-c2ccnc(N)c2)s1 [H 78, methyl 3 [5 (2 amino-4 pyridyl)-2 ethyl-1,3 thiazol-4-yl]benzoate] |
| 124 to 125 | CCc1nc(-c2cccc(C)c2)c(-c2ccnc(NC(=O)c3ccc(OC)cc3)c2)s1 [L 39-2, N-[4 [2 ethyl-4 (3-methylphenyl)-1,3 thiazol-5 yl]-2 pyridyl]-4 methoxybenzamide] |
| 175 to 176 | CCc1nc(-c2ccccc2)c(-c2ccnc(NC(C)=O)c2)s1 [H 82-1, N-[4 (2 ethyl-4 phenyl-1,3-thiazol-5 yl)-2 pyridyl]acetamide] |
| 160 to 161 | CC(=O)Nc1cc(-c2sc(C3CCN(C(C)=O)CC3)nc2-c2cccc(Cl)c2)ccn1 [H 93, N-[4 [2 (1 acetylpiperidin-4 yl)-4 (3 chlorophenyl)-1,3-thiazol-5 yl]-2 pyridyl]acetamide] |
| 116 to 117 | CCc1nc(-c2cccs2)c(-c2ccnc(NC(=O)c3ccccc3)c2)s1 [L 70-4, N-[4 [2 ethyl-4 (2-thienyl)-1,3 thiazol-5 yl]-2 pyridyl]benzamide] |
| 135 to 136 | Cc1cccc(-c2nc(N(C)C(=O)c3cccnc3)sc2-c2ccnc(NC3CCCCC3)c2)c1 [L 65-4, N-methyl-N-[5 (2-cyclohexylamino-4 pyridyl)-4 (3 methylphenyl)-1,3 thiazol-2-yl]nicotinamide] |
| 149 to 150 | CC(=O)Nc1cc(-c2scnc2-c2cccc(C)c2)ccn1 [H 82-11, N-[4 [4 (3 methylphenyl)-1,3 thiazol-5 yl]-2 pyridyl]acetamide] |
| 197 to 198 | Cc1cccc(-c2nc(-c3ccc(S(C)(=O)=O)cc3)sc2-c2cc[n+]([O-])c(C)c2)c1 [H 68-1, 4 [4 (3 methylphenyl)-2-(4 methylsulfonylphenyl)-1,3 thiazol-5 yl]-2 methylpyridine N-oxide] |
